Earlier results, collected in article PMC4336743, “Improved production of sublancin via introduction of three characteristic promoters into operon clusters responsible for this novel distinct glycopeptide biosynthesis” (Microbial Cell Factories, 2015).

Assays:
[1] = test system: proteinases, peptidases
Experimental: Proteolytic susceptibility of sublancin should also be considered in various applications such as in treating bacterial–mediated mastitis or bacterial–mediated gastroenteritis. Therefore, a number of bacterial proteases and gastrointestinal digestive enzymes, e.g., P. aeruginosa elastase and S. aureus V8 protease, pepsin and trypsin would certainly be encountered. […] All experiments were performed in vitro; therefore in vivo studies should be conducted prior to clinical ap ...

[2] = test system: S. aureus
Experimental: Antibacterial activity and cytotoxicity of sublancin were also evaluated. […] These findings are consistent with previously reported study and is almost equal to that of nisin that is a common and typical antimicrobial peptide from Lactococcus lactis, and is widely used in clinical and food preservation applications, with MIC of 0.5 mg/L against S. aureus.

Substance | antimicrobial potency after exposure to proteinases, peptidases and heat [1] | MIC against S. aureus [2] [µg/mL]
Bovicin HC5 | remarkable antimicrobial potency reduction | 
nisin |  | 0.5
